# Reference: PubChem BioAssay AID1745844 (Carcinogenic Potency Database (CPDB), 2022)
# Active and inactive are the calls of the source. How the calls were made is not given here.
# Tested on: rodent lifetime carcinogenesis bioassay, tumor incidence TD50
# Assay: chronic cancer bioassays in animals – CPDB, compiled studies (AID 1745844)
smiles,measurement,setting,value
COc1ccc(C)cc1N,TD50,"mouse, strain B6C3F1, females, in feed, site: any site (literature study), lesion: several types, types named in the paper, dosed 97 weeks, study length 97 weeks",75 mg/kg/day
same,TD50,"mouse, strain B6C3F1, females, in feed, site: liver + urinary bladder, lesion: hepatocellular adenoma + hepatocellular carcinoma + carcinoma, NOS + neoplasm, NOS, malignant + squamous-cell carc, dosed 97 weeks, study length 97 weeks",69 mg/kg/day
same,TD50,"mouse, strain B6C3F1, females, in feed, site: liver, lesion: hepatocellular adenoma + hepatocellular carcinoma + neoplastic nodule, dosed 97 weeks, study length 97 weeks",301 mg/kg/day
same,TD50,"mouse, strain B6C3F1, females, in feed, site: liver, lesion: hepatocellular adenoma + hepatocellular carcinoma, dosed 97 weeks, study length 97 weeks",301 mg/kg/day
same,TD50,"mouse, strain B6C3F1, females, in feed, site: liver, lesion: hepatocellular carcinoma, dosed 97 weeks, study length 97 weeks",315 mg/kg/day
same,TD50,"mouse, strain B6C3F1, females, in feed, site: lung, lesion: alveolar/bronchiolar adenoma + alveolar/bronchiolar carcinoma, dosed 97 weeks, study length 97 weeks",3810 mg/kg/day
same,TD50,"mouse, strain B6C3F1, females, in feed, site: urinary bladder, lesion: carcinoma, NOS + neoplasm, NOS, malignant + squamous-cell carcinoma + transitional-cell carcinoma, dosed 97 weeks, study length 97 weeks",69 mg/kg/day
same,TD50,"mouse, strain B6C3F1, females, in feed, site: urinary bladder, lesion: carcinoma, NOS + squamous-cell carcinoma + transitional-cell carcinoma, dosed 97 weeks, study length 97 weeks",70.1 mg/kg/day
same,TD50,"mouse, strain B6C3F1, males, in feed, site: any site (literature study), lesion: several types, types named in the paper, dosed 97 weeks, study length 97 weeks",46.4 mg/kg/day
same,TD50,"mouse, strain B6C3F1, males, in feed, site: liver, lesion: hepatocellular adenoma + hepatocellular carcinoma + neoplastic nodule, dosed 97 weeks, study length 97 weeks",255 mg/kg/day
same,TD50,"mouse, strain B6C3F1, males, in feed, site: lung, lesion: alveolar/bronchiolar adenoma + alveolar/bronchiolar carcinoma, dosed 97 weeks, study length 97 weeks",1170 mg/kg/day
same,TD50,"mouse, strain B6C3F1, males, in feed, site: urinary bladder, lesion: squamous-cell carcinoma + transitional-cell carcinoma, dosed 97 weeks, study length 97 weeks",44.7 mg/kg/day
same,TD50,"rat, strain Fischer 344, females, in feed, site: adrenal gland, lesion: cortical adenoma, dosed 104 weeks, study length 105 weeks",1490 mg/kg/day
same,TD50,"rat, strain Fischer 344, females, in feed, site: any site (literature study), lesion: several types, types named in the paper, dosed 104 weeks, study length 105 weeks",93.8 mg/kg/day
same,TD50,"rat, strain Fischer 344, females, in feed, site: liver, lesion: hepatocellular adenoma + hepatocellular carcinoma + neoplastic nodule, dosed 104 weeks, study length 105 weeks",2180 mg/kg/day
same,TD50,"rat, strain Fischer 344, females, in feed, site: nasal cavity + urinary bladder, lesion: olfactory neuroblastoma + neoplasm, NOS + papillary carcinoma + squamous-cell carcinoma + transitional-cell carcinoma, dosed 104 weeks, study length 105 weeks",110 mg/kg/day
same,TD50,"rat, strain Fischer 344, females, in feed, site: nasal cavity, lesion: olfactory neuroblastoma, dosed 104 weeks, study length 105 weeks",1190 mg/kg/day
same,TD50,"rat, strain Fischer 344, females, in feed, site: urinary bladder, lesion: neoplasm, NOS + papillary carcinoma + squamous-cell carcinoma + transitional-cell carcinoma, dosed 104 weeks, study length 105 weeks",110 mg/kg/day
same,TD50,"rat, strain Fischer 344, females, in feed, site: uterus, lesion: endometrial stromal polyp, dosed 104 weeks, study length 105 weeks",913 mg/kg/day
same,TD50,"rat, strain Fischer 344, males, in feed, site: any site (literature study), lesion: several types, types named in the paper, dosed 104 weeks, study length 105 weeks",98 mg/kg/day
same,TD50,"rat, strain Fischer 344, males, in feed, site: brain + brain stem, lesion: glioma, NOS, dosed 104 weeks, study length 105 weeks",3510 mg/kg/day
same,TD50,"rat, strain Fischer 344, males, in feed, site: liver + nasal cavity + nasopharynx + urinary bladder, lesion: hepatocellular carcinoma + mixed hepato/cholangio carcinoma + neoplastic nodule + adenoma, NOS + carcinoma, NOS + neuroblastoma + ne, dosed 104 weeks, study length 105 weeks",76.3 mg/kg/day
same,TD50,"rat, strain Fischer 344, males, in feed, site: liver, lesion: hepatocellular adenoma + hepatocellular carcinoma + neoplastic nodule, dosed 104 weeks, study length 105 weeks",443 mg/kg/day
same,TD50,"rat, strain Fischer 344, males, in feed, site: liver, lesion: hepatocellular carcinoma + mixed hepato/cholangio carcinoma + neoplastic nodule, dosed 104 weeks, study length 105 weeks",406 mg/kg/day
same,TD50,"rat, strain Fischer 344, males, in feed, site: nasal cavity + nasopharynx, lesion: carcinoma, NOS + neoplasm, NOS, malignant + adenocarcinoma, NOS, dosed 104 weeks, study length 105 weeks",4620 mg/kg/day
same,TD50,"rat, strain Fischer 344, males, in feed, site: nasal cavity, lesion: adenoma, NOS + carcinoma, NOS + neuroblastoma + neoplasm, NOS, malignant + olfactory neuroblastoma, dosed 104 weeks, study length 105 weeks",397 mg/kg/day
same,TD50,"rat, strain Fischer 344, males, in feed, site: nasal cavity, lesion: neuroblastoma + olfactory neuroblastoma, dosed 104 weeks, study length 105 weeks",450 mg/kg/day
same,TD50,"rat, strain Fischer 344, males, in feed, site: testis, lesion: interstitial-cell tumor, dosed 104 weeks, study length 105 weeks",165 mg/kg/day
same,TD50,"rat, strain Fischer 344, males, in feed, site: urinary bladder, lesion: papillary carcinoma + squamous-cell carcinoma + transitional-cell carcinoma + transitional-cell papilloma + undifferentiated car, dosed 104 weeks, study length 105 weeks",88.4 mg/kg/day
C[C@]12CC[C@H]3C(=CCc4cc(OS(=O)(=O)O)ccc43)[C@@H]1CCC2=O,carcinogen call,"rat, strain Charles River CD (Sprague-Dawley), females, in feed, site: liver, lesion: one or several types, types not named, dosed 104 weeks, study length 104 weeks",negative (inactive)
same,carcinogen call,"rat, strain Charles River CD (Sprague-Dawley), males, in feed, site: liver, lesion: hepatoma, dosed 104 weeks, study length 104 weeks",negative (inactive)
O=NN1CCC1,TD50,"hamster, strain Syrian Golden, males, by gavage, site: any site (literature study), lesion: several types, types named in the paper, dosed 50 weeks, study length 85 weeks",8.83 mg/kg/day
same,TD50,"hamster, strain Syrian Golden, males, by gavage, site: liver, lesion: hepatocellular adenoma, dosed 50 weeks, study length 85 weeks",10.7 mg/kg/day
same,TD50,"hamster, strain Syrian Golden, males, by gavage, site: liver, lesion: several types, types named in the paper, dosed 50 weeks, study length 85 weeks",7.14 mg/kg/day
CNCCc1ccc(OC(=O)C(C)C)c(OC(=O)C(C)C)c1,carcinogen call,"rat, strain Charles River CD (Sprague-Dawley), females, by gavage, site: adrenal gland, lesion: cortical adenoma, dosed 104 weeks, study length 104 weeks",negative (inactive)
same,carcinogen call,"rat, strain Charles River CD (Sprague-Dawley), females, by gavage, site: adrenal gland, lesion: pheochromocytoma, malignant, dosed 104 weeks, study length 104 weeks",negative (inactive)
same,carcinogen call,"rat, strain Charles River CD (Sprague-Dawley), females, by gavage, site: mammary gland, lesion: adenocarcinoma, dosed 104 weeks, study length 104 weeks",negative (inactive)
same,carcinogen call,"rat, strain Charles River CD (Sprague-Dawley), females, by gavage, site: mammary gland, lesion: adenoma, dosed 104 weeks, study length 104 weeks",negative (inactive)
same,carcinogen call,"rat, strain Charles River CD (Sprague-Dawley), females, by gavage, site: pituitary gland, lesion: adenoma, dosed 104 weeks, study length 104 weeks",negative (inactive)
same,carcinogen call,"rat, strain Charles River CD (Sprague-Dawley), males, by gavage, site: adrenal gland, lesion: cortical adenoma, dosed 104 weeks, study length 104 weeks",negative (inactive)
same,carcinogen call,"rat, strain Charles River CD (Sprague-Dawley), males, by gavage, site: adrenal gland, lesion: pheochromocytoma, malignant, dosed 104 weeks, study length 104 weeks",negative (inactive)
same,TD50,"rat, strain Charles River CD (Sprague-Dawley), males, by gavage, site: pituitary gland, lesion: adenoma, dosed 104 weeks, study length 104 weeks",30.2 mg/kg/day (inactive)
NCCCC(N)(C(=O)O)C(F)F (configuration not stated),carcinogen call,"rat, strain Wistar, males, in feed, site: stomach, glandular, lesion: one or several types, types not named, dosed 70 weeks, study length 70 weeks",negative (inactive)
CC(=O)Nc1ccc(S(=O)(=O)c2ccc(NC(C)=O)cc2)cc1,TD50,"rat, strain Buffalo, females, in feed, site: mammary gland, lesion: adenocarcinoma, dosed 43 weeks, study length 92 weeks",55.6 mg/kg/day
CC(=O)NCc1nc(-c2ccc([N+](=O)[O-])o2)no1,TD50,"rat, strain Sprague-Dawley, females, in feed, site: any site (literature study), lesion: several types, types named in the paper, dosed 46 weeks, study length 66 weeks",5.2 mg/kg/day
same,TD50,"rat, strain Sprague-Dawley, females, in feed, site: kidney/pelvis, lesion: transitional-cell carcinoma, dosed 46 weeks, study length 66 weeks",59.6 mg/kg/day
same,TD50,"rat, strain Sprague-Dawley, females, in feed, site: lung, lesion: alveolar-cell carcinoma, dosed 46 weeks, study length 66 weeks",59.6 mg/kg/day
same,TD50,"rat, strain Sprague-Dawley, females, in feed, site: mammary gland, lesion: adenocarcinoma, dosed 46 weeks, study length 66 weeks",10.3 mg/kg/day
same,TD50,"rat, strain Sprague-Dawley, females, in feed, site: mammary gland, lesion: several types, types named in the paper, dosed 46 weeks, study length 66 weeks",6.35 mg/kg/day
O=[N+]([O-])c1cccc2cccnc12,TD50,"rat, strain Fischer 344, females, in feed, site: forestomach, lesion: squamous-cell carcinoma, dosed 104 weeks, study length 104 weeks",32.8 mg/kg/day
same,TD50,"rat, strain Fischer 344, females, in feed, site: forestomach, lesion: squamous-cell papilloma, dosed 104 weeks, study length 104 weeks",9.55 mg/kg/day
same,carcinogen call,"rat, strain Fischer 344, females, in feed, site: liver, lesion: hyperplastic nodule, dosed 104 weeks, study length 104 weeks",negative (inactive)
same,TD50,"rat, strain Fischer 344, males, in feed, site: forestomach, lesion: squamous-cell carcinoma, dosed 104 weeks, study length 104 weeks",24.9 mg/kg/day
same,TD50,"rat, strain Fischer 344, males, in feed, site: forestomach, lesion: squamous-cell papilloma, dosed 104 weeks, study length 104 weeks",10.1 mg/kg/day
same,carcinogen call,"rat, strain Fischer 344, males, in feed, site: liver, lesion: hyperplastic nodule, dosed 104 weeks, study length 104 weeks",negative (inactive)
O=[As]O,carcinogen call,"mouse, strain Charles River CD1, both sexes, in drinking water, site: any site (literature study), lesion: benign tumor, dosed 104 weeks, study length 104 weeks",negative (inactive)
same,carcinogen call,"mouse, strain Charles River CD1, both sexes, in drinking water, site: any site (literature study), lesion: malignant tumor, dosed 104 weeks, study length 104 weeks",negative (inactive)
same,carcinogen call,"mouse, strain Charles River CD1, both sexes, in drinking water, site: any site (literature study), lesion: several types, types named in the paper, dosed 104 weeks, study length 104 weeks",negative (inactive)
same,carcinogen call,"mouse, strain Charles River CD1, both sexes, in drinking water, site: liver, lesion: several types, types named in the paper, dosed 104 weeks, study length 104 weeks",negative (inactive)
same,carcinogen call,"mouse, strain Charles River CD1, both sexes, in drinking water, site: lung, lesion: several types, types named in the paper, dosed 104 weeks, study length 104 weeks",negative (inactive)
same,carcinogen call,"rat, strain Long-Evans BLU:(LE), both sexes, in drinking water, site: any site (literature study), lesion: malignant tumor, dosed 167 weeks, study length 167 weeks",negative (inactive)
same,carcinogen call,"rat, strain Long-Evans BLU:(LE), both sexes, in drinking water, site: any site (literature study), lesion: one or several types, types not named, dosed 167 weeks, study length 167 weeks",negative (inactive)
same,TD50,"rat, strain Long-Evans BLU:(LE), both sexes, in drinking water, site: liver, lesion: one or several types, types not named, dosed 167 weeks, study length 167 weeks",10.6 mg/kg/day (inactive)
same,TD50,"rat, strain Osborne-Mendel, both sexes, in feed, site: any site (literature study), lesion: malignant tumor, dosed 104 weeks, study length 104 weeks",626 mg/kg/day (inactive)
same,carcinogen call,"rat, strain Osborne-Mendel, both sexes, in feed, site: any site (literature study), lesion: several types, types named in the paper, dosed 104 weeks, study length 104 weeks",negative (inactive)
O=C(O)C1C2C=CC(C2)C1(C(=O)O)[N+](=O)[O-] (configuration not stated),TD50,"mouse, strain B6C3F1, females, in drinking water, site: any site (literature study), lesion: several types, types named in the paper, dosed 104 weeks, study length 104 weeks",169 mg/kg/day
same,TD50,"mouse, strain B6C3F1, females, in drinking water, site: liver, lesion: hemangioma, dosed 104 weeks, study length 104 weeks",1240 mg/kg/day
same,TD50,"mouse, strain B6C3F1, females, in drinking water, site: liver, lesion: hyperplastic nodule, dosed 104 weeks, study length 104 weeks",3190 mg/kg/day
same,TD50,"mouse, strain B6C3F1, females, in drinking water, site: lung, lesion: papillary tumor, dosed 104 weeks, study length 104 weeks",5650 mg/kg/day
same,TD50,"mouse, strain B6C3F1, males, in drinking water, site: any site (literature study), lesion: several types, types named in the paper, dosed 104 weeks, study length 104 weeks",153 mg/kg/day
same,TD50,"mouse, strain B6C3F1, males, in drinking water, site: liver, lesion: hepatoma, dosed 104 weeks, study length 104 weeks",2640 mg/kg/day
same,TD50,"mouse, strain B6C3F1, males, in drinking water, site: lung, lesion: papillary tumor, dosed 104 weeks, study length 104 weeks",348 mg/kg/day
